Values joined by “and” are separate entries in the source; they are usually repeats but may differ in a detail not shown here. Equal values may be shown once.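 Values below derive from 48-hour exposures of cells grown in 96-well plates, with endpoints linearly interpolated between the two concentrations bracketing the appropriate inhibition level. GI50: concentration for 50% inhibition of growth. TGI: concentration producing complete growth inhibition.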

Some test systems named below: HOP-18 NSCLC; LXFL 529 NSCLC; RXF-631 renal; SNB-78 CNS; M19-MEL melanoma; XF 498 CNS; MDA-N; P388 leukemia; P388/ADR leukemia; SN12K1 renal.
Experiment in all cases: NCI tumour cell line growth inhibition, 48 h

Turning to `CC1=C2C(c3ccccc3)(c3ccccc3)C3C=CC2(C=N3)N(C(=O)NC2CCCCC2)C1=O` (configuration not stated), the TGI in the test on HOP-18 NSCLC stood at 34.3 µM; in the test on LXFL 529 NSCLC, 30.1 µM; with RXF-631 renal, 26.2 µM; with SNB-78 CNS, 31.9 µM.
Turning to `Cc1cc(C)nc(NS(=O)(=O)c2ccc(NC(=O)c3cccc4cc5ccccc5nc34)cc2)n1`, the TGI in the test on LXFL 529 NSCLC was more than 100 µM; in the test on M19-MEL melanoma, 79 µM; in the test with RXF-631 renal, more than 100 µM; with SNB-78 CNS it was 72.7 µM; with XF 498 CNS it was 98.2 µM.
With `CC1OC(O)C(O)C(O)C1O` (configuration not stated), the TGI with MDA-N is more than 100 µM.
With `COc1cc(Br)c(CC2=NCCc3cc(OC)c(OC)cc32)cc1OC`, the TGI in the test with HOP-18 NSCLC, with LXFL 529 NSCLC, in the test on M19-MEL melanoma and in the test on RXF-631 renal was more than 100 µM throughout.
Turning to `O=[N+]([O-])c1ccccc1C1N2CCCCC2[C@@H]2c3[nH]c4ccccc4c3CCN12` (some centres not stated), the TGI was more than 100 µM in the test with HOP-18 NSCLC; 22.8 µM with LXFL 529 NSCLC; 18.5 µM in the test with M19-MEL melanoma; 32.8 µM in the test on RXF-631 renal; 32.2 µM with SNB-78 CNS; 30.6 µM in the test on XF 498 CNS.
On to `Cn1c(O)c(C(=O)Nc2ccc([N+](=O)[O-])cc2)c(=O)n(C)c1=S`, for which the TGI in the test on HOP-18 NSCLC is 6.85 µM; in the test with LXFL 529 NSCLC it was more than 50.1 µM; with M19-MEL melanoma, more than 45.3 µM.
For `Cc1ccc(Nc2ccc(Nc3ccc(C)cc3)c3c2C(=O)c2c(O)ccc(O)c2C3=O)cc1`, the TGI with LXFL 529 NSCLC, with M19-MEL melanoma, in the test on SNB-78 CNS and in the test on XF 498 CNS was more than 100 µM each time.
`COc1ccc(C(Nc2ncccn2)c2cc3c(cc2O)OCO3)cc1` (configuration not stated) showed a TGI in the test on MDA-N of 42.3 µM.
`CN(C)c1ccc(/C=C/c2ccnc3ccccc23)cc1` yielded a TGI with MDA-N of 40.1 µM.
`C/C(=N\Nc1ccc([N+](=O)[O-])cc1)C(=O)N(C)Nc1ccccc1`: the TGI in the test on HOP-18 NSCLC, in the test with LXFL 529 NSCLC, in the test with M19-MEL melanoma and in the test with XF 498 CNS was more than 100 µM throughout.
`COc1cc(C2C(C(=O)Nc3ccccc3)=C(C)NC(C)=C2C(=O)Nc2ccccc2)ccc1O`: the TGI with HOP-18 NSCLC, in the test with LXFL 529 NSCLC, in the test with M19-MEL melanoma, in the test on SNB-78 CNS and in the test on XF 498 CNS was more than 100 µM throughout.
For `O=C1C2=C(c3ccccc31)C(c1ccccc1Cl)N1C(=O)CSC1=N2` (configuration not stated), the TGI with LXFL 529 NSCLC, in the test on M19-MEL melanoma, in the test with RXF-631 renal and with XF 498 CNS was more than 100 µM in each case.
For `Cc1ccc(NC(=O)C(=O)Cc2nc3ccccc3o2)c(C)c1`, the TGI with LXFL 529 NSCLC, with M19-MEL melanoma, with RXF-631 renal, in the test with SNB-78 CNS and with XF 498 CNS was more than 100 µM each time.
Consider `O=c1nc2cc(-c3ccccc3)[nH]c2nn1-c1c(Cl)cc(Cl)cc1Cl`, for which the TGI was 44.9 µM in the test on HOP-18 NSCLC; more than 100 µM in the test with LXFL 529 NSCLC; 63.2 µM in the test on M19-MEL melanoma; more than 100 µM in the test with RXF-631 renal; more than 100 µM in the test on SNB-78 CNS; 64.1 µM in the test with XF 498 CNS.
`C[Si](C)(C)/C=C/CN1C(=O)CCC1O` (configuration not stated): the TGI with HOP-18 NSCLC, with LXFL 529 NSCLC, in the test on M19-MEL melanoma, with SNB-78 CNS and with XF 498 CNS was more than 100 µM in each case.
`CC(=O)OC1CCC2(C)C(=CC(C3C=C4CC(OC(C)=O)CCC4(C)C4=C3C3CC5OC6(CCC(C)CO6)C(C)C5C3(C)CC4)C3=C2CCC2(C)C3CC3OC4(CCC(C)CO4)C(C)C32)C1` (configuration not stated) returned a TGI in the test with MDA-N of 30.9 µM.
As to `O=c1c([Se]c2coc3ccccc3c2=O)coc2ccccc12`, the TGI is 29.3 µM in the test with HOP-18 NSCLC; 28.8 µM in the test with LXFL 529 NSCLC; 28.6 µM with M19-MEL melanoma; 34.7 µM with SNB-78 CNS; 30.5 µM in the test with XF 498 CNS.
For the compound `C=C1C(C)C2C(Cc3ccccc3)NC(=O)C23C(OC(C)=O)/C=C/C(C)(O)CC(C)C/C=C/C3C1O` (configuration not stated), the TGI in the test with HOP-18 NSCLC was 0.814 µM; in the test on M19-MEL melanoma, more than 100 µM; in the test on MDA-N, more than 100 µM; with P388 leukemia it was 41.3 µM; with P388/ADR leukemia, 33.5 µM; with SN12K1 renal, 37.1 µM. The TGI is 1.3 µM with SNB-78 CNS and 8.29 µM in the test with XF 498 CNS.
Take `O=Cc1coc2ccccc2c1=O`: in the test with MDA-N, the TGI came out at 52.3 µM.
With `COC(=O)C1=C(C(=O)OC)C2(C(=O)OC)OC1(OC)C(C1(C(=O)OC)C(C(=O)OC)=C1C(=O)OC)=C2C(=O)OC` (configuration not stated), the TGI in the test on HOP-18 NSCLC, in the test with LXFL 529 NSCLC, with M19-MEL melanoma, in the test on SNB-78 CNS and in the test on XF 498 CNS was more than 100 µM each time.
For `CC[C@@H]1OC2(C)CC(S(=O)(=O)c3ccccc3)CC1O2` (some centres not stated), the TGI in the test with HOP-18 NSCLC, in the test on LXFL 529 NSCLC, in the test with M19-MEL melanoma, in the test on RXF-631 renal and in the test on SNB-78 CNS was more than 100 µM in each case.
Take `COc1ccc(O)c2c1C(=O)CCCC2=O`: the TGI in the test with LXFL 529 NSCLC, with M19-MEL melanoma, with RXF-631 renal, in the test on SNB-78 CNS and with XF 498 CNS was more than 100 µM each time.
Turning to `CCc1cccc(C)c1NC(=O)NS(=O)(=O)c1ccc(C)cc1`, the TGI with HOP-18 NSCLC, with LXFL 529 NSCLC, in the test on M19-MEL melanoma, with RXF-631 renal, in the test with SNB-78 CNS and in the test on XF 498 CNS was more than 100 µM each time.
In the test on MDA-N, `O=C1c2ccccc2C(=O)N1c1ccc(OCCN2CCCCC2)cc1` returned a TGI of more than 100 µM.
On to `COc1ccc(C(=O)C=C2NCCN2)cc1`, for which the TGI in the test with HOP-18 NSCLC, in the test with LXFL 529 NSCLC, with M19-MEL melanoma and in the test with SNB-78 CNS was more than 100 µM each time.
Turning to `Fc1ccccc1C1CC(C(c2ccccc2)c2ccccc2)=Nc2ccccc2S1` (configuration not stated), the TGI turned out to be 31.4 µM in the test with HOP-18 NSCLC, 15.3 µM in the test with LXFL 529 NSCLC, 27.2 µM in the test with RXF-631 renal and 27.1 µM in the test with XF 498 CNS.
For the compound `COc1ccc(C2S/C(=C\c3ccc(OC)cc3OC)C(=O)N2NC(=O)Cc2ccccc2)cc1` (configuration not stated), the TGI with HOP-18 NSCLC, in the test on LXFL 529 NSCLC and in the test on M19-MEL melanoma was more than 100 µM throughout.
Regarding `CCOC(=O)C(C[Si](C)(C)C)P(=O)(OCC)OCC` (configuration not stated), the TGI in the test with LXFL 529 NSCLC, with M19-MEL melanoma, in the test with RXF-631 renal, in the test on SNB-78 CNS and in the test with XF 498 CNS was more than 100 µM throughout.
In the case of `CC(=O)Nc1ccc(-c2nnc(SCC(=O)Nc3ccc(C)cc3)o2)cc1`, the TGI in the test on HOP-18 NSCLC was 31.3 µM; with LXFL 529 NSCLC it was 30.5 µM; in the test with M19-MEL melanoma it was 32.9 µM; in the test on SNB-78 CNS, 34.7 µM.
Consider `COc1cccc(C2C(C(=O)Nc3cc(=O)n(C)c(=O)n3C)=C(C)NC(C)=C2C(=O)Nc2cc(=O)n(C)c(=O)n2C)c1O`, for which the TGI in the test on LXFL 529 NSCLC, with M19-MEL melanoma, with RXF-631 renal, in the test on SNB-78 CNS and in the test on XF 498 CNS was more than 100 µM in each case.
`Cc1nc(C(N)=S)sc1C(=O)/C=C/c1cccc(O)c1`: the TGI with HOP-18 NSCLC, in the test with M19-MEL melanoma, in the test on RXF-631 renal and in the test with SNB-78 CNS was more than 100 µM each time.
Consider `COc1ccccc1/C=C\c1cc(OC)c(OC)c(OC)c1`, for which the TGI with HOP-18 NSCLC is more than 100 µM; in the test with LXFL 529 NSCLC, more than 100 µM; with M19-MEL melanoma it was more than 100 µM; in the test on RXF-631 renal it was more than 100 µM; with SNB-78 CNS it was more than 100 µM; in the test on XF 498 CNS, 48 µM.
As for `O=c1cccccc1NCCCCNc1cccccc1=O`, the TGI in the test on HOP-18 NSCLC, in the test on LXFL 529 NSCLC, in the test on M19-MEL melanoma, with RXF-631 renal and with SNB-78 CNS was more than 100 µM throughout.
Turning to `O=C1c2cc(CCl)sc2C(=O)c2ccsc21`, the TGI with HOP-18 NSCLC was found to be 0.797 µM; with LXFL 529 NSCLC, 0.609 µM; with MDA-N, 0.0343 µM; with SNB-78 CNS, 0.746 µM; in the test with XF 498 CNS it was 3.1 µM.
Take `CCOC(=O)C(C)(C)Oc1ccc2c(-c3ccc(Cl)cc3)cc(=O)oc2c1`: the TGI in the test with LXFL 529 NSCLC, in the test with M19-MEL melanoma and in the test with RXF-631 renal was more than 100 µM throughout.
As to `O=[N+]([O-])c1ccc2c(N=Nc3c(O)ccc4ccccc34)c(O)cc(S(=O)(=O)O)c2c1`, in the test with MDA-N, the GI50 was 45.3 µM; the TGI was 50 µM and > 100 µM.
Take `CC1(C)OCN(c2ccc(Cl)cc2)Cn2c1nc1ccccc12`: the TGI in the test on HOP-18 NSCLC, in the test with LXFL 529 NSCLC, in the test on M19-MEL melanoma, in the test with MDA-N, in the test on SNB-78 CNS and in the test on XF 498 CNS was more than 100 µM in each case.
`COc1cc2c(cc1C)n(O)c(C)c(C(=O)C/C(=N/NC(=O)C[N+](C)(C)C)C(=O)Nc1cccc(Cl)c1C)[n+]2=O`: the TGI with HOP-18 NSCLC, with LXFL 529 NSCLC, with RXF-631 renal, with SNB-78 CNS and with XF 498 CNS was more than 100 µM each time.
On to `CCOC(=O)C12CC1(C(=O)OCC)C1CCC2C1` (configuration not stated), for which the TGI with HOP-18 NSCLC, in the test with LXFL 529 NSCLC, in the test on M19-MEL melanoma and with RXF-631 renal was more than 100 µM in each case.
With `CCC1(OC(C)=O)C(=O)OCc2c1cc1n(c2=O)Cc2cc3ccccc3nc2-1` (configuration not stated), the TGI with HOP-18 NSCLC, in the test with LXFL 529 NSCLC, with M19-MEL melanoma, with RXF-631 renal, in the test on SNB-78 CNS and in the test with XF 498 CNS was more than 100 µM throughout.
`COc1ccc2c(c1)CC[C@@H]1C2CC[C@]2(C)C(=O)NC(=O)CC12` (some centres not stated): the TGI with HOP-18 NSCLC, in the test with LXFL 529 NSCLC, in the test with M19-MEL melanoma, with SNB-78 CNS and with XF 498 CNS was more than 100 µM throughout.
As to `CCNCC(O)c1ccc(N)c([N+](=O)[O-])c1` (configuration not stated), in the test with MDA-N, the TGI was more than 100 µM.

(Values after PubChem BioAssay (NCI).)
